Test results as given in patent US20250213558A1, “T-TYPE CALCIUM CHANNEL MODULATORS COMPRISING A PIPERAZINE OR 1,4-DIAZEPANE CORE AND METHODS OF USE THEREOF” (Praxis Precision Medicines, Inc., priority 2022, published 2025).
Read-outs that look alike come from different tables or passages of the source.

What was measured:
absence seizures = settings: childhood absence epilepsy, cited from earlier work
[1] = biological target: T1, Human Cav3.1 calcium channel (Homo sapiens, UniProt O43497); experiment: Human Cav3.1 calcium channel patch clamp assay (SyncroPatch 384PE; single point and IC50, voltage dependent block); assay type: cell-based; settings: HEK-293 natClytin/TASK1+Cav3.1 cell line; for % Inhibition (Single Point Data): patch clamp; for IC50: voltage dependent block (VDB), read-out: Cav3.1 IC50
T1 construct: expressed in transfected cells; host or cells: HEK-293 natClytin/TASK1+Cav3.1 cell line
T1 sequence (O43497 whole entry): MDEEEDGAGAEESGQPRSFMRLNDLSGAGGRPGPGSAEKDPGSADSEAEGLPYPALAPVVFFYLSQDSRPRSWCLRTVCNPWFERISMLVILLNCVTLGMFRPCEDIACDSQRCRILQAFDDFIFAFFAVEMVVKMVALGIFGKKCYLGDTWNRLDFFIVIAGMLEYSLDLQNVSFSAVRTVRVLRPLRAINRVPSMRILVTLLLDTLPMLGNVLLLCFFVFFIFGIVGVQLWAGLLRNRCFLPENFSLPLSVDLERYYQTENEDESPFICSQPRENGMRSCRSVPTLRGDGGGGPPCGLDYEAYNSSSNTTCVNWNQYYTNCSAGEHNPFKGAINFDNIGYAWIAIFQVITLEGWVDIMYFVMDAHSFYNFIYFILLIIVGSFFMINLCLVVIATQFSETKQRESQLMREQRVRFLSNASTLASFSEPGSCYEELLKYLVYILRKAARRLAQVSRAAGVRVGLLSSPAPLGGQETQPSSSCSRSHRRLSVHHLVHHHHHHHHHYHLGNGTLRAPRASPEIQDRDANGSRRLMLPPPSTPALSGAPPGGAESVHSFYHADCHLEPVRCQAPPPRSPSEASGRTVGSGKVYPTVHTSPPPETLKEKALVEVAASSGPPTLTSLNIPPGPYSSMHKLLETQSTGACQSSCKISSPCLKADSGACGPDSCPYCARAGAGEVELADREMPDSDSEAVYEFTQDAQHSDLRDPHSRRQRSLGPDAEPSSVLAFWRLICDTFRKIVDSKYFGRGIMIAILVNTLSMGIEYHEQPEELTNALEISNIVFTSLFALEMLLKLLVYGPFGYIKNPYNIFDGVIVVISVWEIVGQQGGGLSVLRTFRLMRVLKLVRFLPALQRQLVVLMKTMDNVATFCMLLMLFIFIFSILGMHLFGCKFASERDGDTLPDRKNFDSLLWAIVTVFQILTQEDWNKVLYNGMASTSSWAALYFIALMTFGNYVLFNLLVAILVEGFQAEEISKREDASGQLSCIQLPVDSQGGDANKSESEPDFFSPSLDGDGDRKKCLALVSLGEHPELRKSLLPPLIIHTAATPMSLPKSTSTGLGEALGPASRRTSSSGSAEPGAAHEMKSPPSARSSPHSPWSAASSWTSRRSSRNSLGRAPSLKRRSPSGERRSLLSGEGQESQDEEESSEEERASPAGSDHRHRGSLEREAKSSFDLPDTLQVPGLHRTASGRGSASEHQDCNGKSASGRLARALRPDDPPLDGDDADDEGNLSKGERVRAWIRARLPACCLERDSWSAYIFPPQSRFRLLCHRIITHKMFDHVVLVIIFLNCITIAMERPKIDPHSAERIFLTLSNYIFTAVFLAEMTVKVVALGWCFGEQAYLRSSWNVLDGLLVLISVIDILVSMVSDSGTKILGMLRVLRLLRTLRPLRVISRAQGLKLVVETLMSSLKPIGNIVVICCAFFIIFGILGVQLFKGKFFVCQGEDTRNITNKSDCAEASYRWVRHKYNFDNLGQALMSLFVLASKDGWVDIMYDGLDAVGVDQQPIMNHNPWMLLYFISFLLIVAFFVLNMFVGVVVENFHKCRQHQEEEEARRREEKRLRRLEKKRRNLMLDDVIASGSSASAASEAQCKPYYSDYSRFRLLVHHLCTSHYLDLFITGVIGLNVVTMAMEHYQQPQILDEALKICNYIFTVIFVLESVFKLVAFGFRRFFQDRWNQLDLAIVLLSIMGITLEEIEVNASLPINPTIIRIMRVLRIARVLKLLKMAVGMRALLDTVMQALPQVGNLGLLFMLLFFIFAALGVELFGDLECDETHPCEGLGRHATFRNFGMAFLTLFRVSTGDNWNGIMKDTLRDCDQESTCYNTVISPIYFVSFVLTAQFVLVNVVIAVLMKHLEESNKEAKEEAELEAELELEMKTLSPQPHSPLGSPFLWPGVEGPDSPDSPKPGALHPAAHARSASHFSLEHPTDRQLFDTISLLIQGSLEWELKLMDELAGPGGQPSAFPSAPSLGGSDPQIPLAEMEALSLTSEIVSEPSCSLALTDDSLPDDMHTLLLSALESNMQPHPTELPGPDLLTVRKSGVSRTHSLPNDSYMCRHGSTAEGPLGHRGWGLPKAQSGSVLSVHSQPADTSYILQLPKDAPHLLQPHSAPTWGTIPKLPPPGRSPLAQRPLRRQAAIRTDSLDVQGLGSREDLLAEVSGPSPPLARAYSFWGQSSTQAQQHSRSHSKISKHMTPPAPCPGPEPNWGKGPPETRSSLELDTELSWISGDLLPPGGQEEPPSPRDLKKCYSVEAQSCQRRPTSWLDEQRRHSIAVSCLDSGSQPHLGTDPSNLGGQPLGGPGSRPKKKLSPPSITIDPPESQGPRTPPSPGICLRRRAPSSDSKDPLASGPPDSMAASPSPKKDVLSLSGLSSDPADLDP
Method in brief: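 Automated whole-cell patch clamp at room temperature, cells held at −120 mV; 100 ms step to −20 mV (resting block), then 1600 ms at −65 mV and a second −20 mV step (voltage-dependent block), every 15 s. Peak currents averaged over last 3 sweeps; % inhibition relative to nickel-sensitive current.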

[2] = at 16 weeks, assessed by video-EEG recordings

SMILES	% Inhibition (Single Point Data) ([1]; Testing Conc 1.25) [%]	IC50 [1] [nM]	other results
Nc1nnc(-c2cccc(Cl)c2Cl)c(N)n1 [Lamotrigine]	–	–	patients in whom the seizures were completely controlled (absence seizures; at 12 months): 21%; patients in whom the seizures were completely controlled (absence seizures; [2]): 29%
CCC1(C)CC(=O)NC1=O (centres unmarked) [ethosuximide]	–	–	patients in whom the seizures were completely controlled (absence seizures; at 12 months): 45%; patients in whom the seizures were completely controlled (absence seizures; [2]): 53%
CC1(S(=O)(=O)NCCN2C3CC2CN(Cc2nc4c(Cl)cc(F)cc4[nH]2)C3)CC1 [Compound 142]	84.115	223	–
CC(C)(C)NC(=O)CN1CCC(=O)N(CC(=O)Nc2cc(F)cc(Cl)c2)CC1 [Compound 37]	–	–	% Inhibition (Single Point Data) ([1]; Testing Conc 1): 25.144%
CC1(C)CC(CN2C3CCC2CN(Cc2nc4c(Cl)cc(F)cc4[nH]2)C3)CCO1 (centres unmarked) [Compound 96]	93.367	205	–
O=C(CN1C[C@@H]2C[C@H]1CN2CC(=O)NC1(C(F)(F)F)COC1)NC12CC3CC(CC(C3)C1)C2 [Compound 319]	23.628	2080	–
COc1cc(F)cc2[nH]c(CN3CC4CC(C3)N4CC(=O)NC(C)(C)C)nc12 [Compound 164]	84.695	–	–
CC(C)(C)NC(=O)CN1C2CC1CN(c1nc3c(Cl)cc(F)cc3[nH]1)C2 [Compound 209]	24.65	5090	–
CC(C)(CCN1C2CC1CN(Cc1nc3c(Cl)cc(F)cc3[nH]1)C2)C(F)(F)F [Compound 172]	94.964	–	–
COc1cc(NC(=O)CN2C[C@@H]3C[C@H]2CN3CC(=O)NC(C)(C)C)ccc1Cl [Compound 337]	95.366	< 78.2	–
CC(C)(C)NC(=O)CN1C[C@@H]2C[C@H]1CN2CC(=O)Nc1cccc(OC(F)F)c1 [Compound 253]	38.026	1310	–
CC(C)(C)NC(=O)CN1C2CCC1CN(Cc1nc3c(Cl)cc(C#N)cc3[nH]1)C2 [Compound 191]	97.531	–	–
CC1(C)CCC(=O)N1CCN1C2CC1CN(Cc1nc3c(Cl)cc(F)cc3[nH]1)C2 [Compound 150]	66.439	652	–
CN(C(=O)CN1C2CC1CN(Cc1nc3c(Cl)cc(F)cc3[nH]1)C2)C(C)(C)C [Compound 101]	96.57	–	–
O=C(CN1CC2CC(C1)N2CCNC(=O)C1(C(F)(F)F)CCC1)Nc1cc(F)cc(Cl)c1 [Compound 229]	89.382	–	–
CC(C)(C)NC(=O)CN1C[C@@H]2C[C@H]1CN2CC(=O)NC1CCCCC1 [Compound 289]	36.292	5020	–
